Article PMC9104438, “Application of a Fluorescence Anisotropy-Based Assay to Quantify Transglutaminase 2 Activity in Cell Lysates” (International Journal of Molecular Sciences, 2022)

Assays:
hTGase 2 [1] = target: T1, hTGase 2 (Homo sapiens, UniProt P21980); set-up: purchased Zedira T022; method as in PMID 29664627; conditions: fluorimetric activity assay; mean (SEM); cited from earlier work
T1 sequence (P21980 1-687): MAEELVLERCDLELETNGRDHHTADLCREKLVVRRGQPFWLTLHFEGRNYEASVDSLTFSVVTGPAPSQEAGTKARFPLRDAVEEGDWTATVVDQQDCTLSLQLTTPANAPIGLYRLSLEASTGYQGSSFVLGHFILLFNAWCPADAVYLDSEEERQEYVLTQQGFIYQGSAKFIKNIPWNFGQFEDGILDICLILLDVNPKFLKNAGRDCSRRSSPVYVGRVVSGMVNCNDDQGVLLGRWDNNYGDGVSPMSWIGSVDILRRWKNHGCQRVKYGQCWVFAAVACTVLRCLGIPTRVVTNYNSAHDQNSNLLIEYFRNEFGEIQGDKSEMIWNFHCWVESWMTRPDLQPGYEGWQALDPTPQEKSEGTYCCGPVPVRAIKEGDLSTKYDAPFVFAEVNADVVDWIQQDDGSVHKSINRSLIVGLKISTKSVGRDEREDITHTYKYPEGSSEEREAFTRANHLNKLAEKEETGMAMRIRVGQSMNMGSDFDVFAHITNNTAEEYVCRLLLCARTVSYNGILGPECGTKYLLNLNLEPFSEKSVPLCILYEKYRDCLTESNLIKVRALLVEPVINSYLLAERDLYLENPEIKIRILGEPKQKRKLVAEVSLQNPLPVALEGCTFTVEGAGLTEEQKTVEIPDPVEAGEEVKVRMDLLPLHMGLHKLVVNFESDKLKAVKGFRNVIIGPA

hTGase 2 [2] = target: T1, hTGase 2; test: FA-based assay, characterization of irreversible inhibitors; conditions: DMC 30 µM, mean (SEM)
hTGase 2 [3] = target: T1, hTGase 2; test: Fluorimetric activity assay (substrate Z-Glu(HMC)-Gly-OH); type: biochemical; set-up: purchased Zedira T022; conditions: mean (SEM) of 2 experiments
Experimental: The kinetic characterization of compounds 3 and 4 by means of their kinact/KI values was performed using a fluorimetric activity assay (substrate Z-Glu(HMC)-Gly-OH) as described recently.

hTGase 3 = target: T2, hTGase 3 (Homo sapiens, UniProt Q08188); test: FA-based assay, kinetic characterization of acyl donor DMC with R-I-Cad; type: biochemical; set-up: purchased Zedira T013; conditions: hTGase 3 5 µg/mL, R-I-Cad 0.74 µM, mean (SEM)
T2 sequence (Q08188 2-467 limits assumed): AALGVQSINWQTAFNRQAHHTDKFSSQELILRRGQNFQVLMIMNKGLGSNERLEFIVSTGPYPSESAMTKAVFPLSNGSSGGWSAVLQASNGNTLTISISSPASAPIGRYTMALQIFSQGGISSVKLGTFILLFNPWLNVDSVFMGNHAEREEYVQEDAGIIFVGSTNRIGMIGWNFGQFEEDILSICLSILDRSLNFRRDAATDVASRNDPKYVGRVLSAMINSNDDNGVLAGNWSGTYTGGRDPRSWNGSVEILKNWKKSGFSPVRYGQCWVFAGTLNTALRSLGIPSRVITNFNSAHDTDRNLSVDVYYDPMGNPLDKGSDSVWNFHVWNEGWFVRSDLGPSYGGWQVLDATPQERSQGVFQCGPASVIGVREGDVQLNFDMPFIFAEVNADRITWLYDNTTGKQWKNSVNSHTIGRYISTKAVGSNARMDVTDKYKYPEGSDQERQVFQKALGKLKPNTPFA
T2 sequence (Q08188 468-693 partner limits assumed): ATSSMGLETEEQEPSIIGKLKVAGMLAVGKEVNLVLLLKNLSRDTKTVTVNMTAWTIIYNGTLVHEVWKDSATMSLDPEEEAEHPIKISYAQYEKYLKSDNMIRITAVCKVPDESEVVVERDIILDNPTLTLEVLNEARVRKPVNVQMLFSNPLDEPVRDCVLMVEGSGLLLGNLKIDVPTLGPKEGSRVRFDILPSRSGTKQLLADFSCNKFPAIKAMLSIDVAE
Experimental: (§1) For the kinetic characterization of DMC (Figure 1B) in the presence of a fixed concentration of R-I-Cad (0.74 µM), eight different concentrations of DMC (0.3–300 µM) were used (2–3 separate experiments, each performed in duplicate). The corresponding stock solutions of DMC and R-I-Cad were prepared in assay buffer A and DMSO, respectively. […] Values for Km, Ki and Vmax were calculated according to the equation of substrate inhibition (Equation (2)). (2) v=Vmax∗[S]/Km+[S]∗(1+[S]/Ki)

hTGase 6 = target: T3, hTGase 6 (Homo sapiens, UniProt O95932); test: as above; type: biochemical; set-up: purchased Zedira T021; conditions: hTGase 6 5 µg/mL, R-I-Cad 0.74 µM, mean (SEM)
T3 sequence (O95932 1-706): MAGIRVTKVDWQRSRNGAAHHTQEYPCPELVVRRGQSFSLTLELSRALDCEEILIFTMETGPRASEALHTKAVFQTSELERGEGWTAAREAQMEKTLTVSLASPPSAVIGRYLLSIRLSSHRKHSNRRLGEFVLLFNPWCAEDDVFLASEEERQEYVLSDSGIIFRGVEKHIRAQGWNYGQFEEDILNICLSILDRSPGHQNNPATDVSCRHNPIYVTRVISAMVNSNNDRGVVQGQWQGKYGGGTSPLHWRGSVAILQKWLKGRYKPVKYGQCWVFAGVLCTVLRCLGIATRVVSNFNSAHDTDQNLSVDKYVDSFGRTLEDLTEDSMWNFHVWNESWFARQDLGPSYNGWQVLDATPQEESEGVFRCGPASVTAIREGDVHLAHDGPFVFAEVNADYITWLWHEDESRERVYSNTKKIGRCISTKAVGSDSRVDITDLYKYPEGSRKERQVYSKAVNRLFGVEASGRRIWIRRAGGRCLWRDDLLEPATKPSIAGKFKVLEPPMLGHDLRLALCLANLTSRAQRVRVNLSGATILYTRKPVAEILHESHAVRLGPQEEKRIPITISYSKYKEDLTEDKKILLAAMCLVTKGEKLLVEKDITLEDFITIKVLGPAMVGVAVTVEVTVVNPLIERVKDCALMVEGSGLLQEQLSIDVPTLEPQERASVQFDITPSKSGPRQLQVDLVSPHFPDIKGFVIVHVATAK
Experimental: as §1

[4] = IC50 hTGase 2, preincubation 30 min, R-I-Cad 0.74 µM, hTGase 2 5 µg/mL
[5] = IC50 hTGase 2, preincubation 5 min, R-I-Cad 0.81 µM, hTGase 2 2 µg/mL
[6] = read-out: Ki (substrate inhibition)

| Molecule | kinact/KI hTGase 2 (hTGase 2 [1]) | IC50 (hTGase 2 [2]; [4]) [nM] | kinact/KI (hTGase 2 [3]) [M⁻¹ s⁻¹] | IC50 (hTGase 2 [2]; [5]) [nM] | further results |
| --- | --- | --- | --- | --- | --- |
| C=CC(=O)NCCCC[C@H](NC(=O)Cc1ccccc1)C(=O)N1CCN(c2cccc(C)n2)CC1 [Compound 1] | 4880 (20)^c M^−1s^−1 | 40 | – | – | – |
| C=CC(=O)NCCCC[C@H](NC(=O)Cc1ccccc1)C(=O)N1CCN(c2ccc([N+](=O)[O-])nc2)CC1 [Compound 2] | 8460 (710) ^c M^−1s^−1 | 42 | – | – | – |
| C#Cc1cccc(N2CCN(C(=O)[C@H](CCCCNC(=O)C=C)NC(=O)Cc3ccccc3)CC2)n1 [Compound 3, N^α-Phenylacetyl-N^ε-acryloyl-L-lysine-4-(6-ethinylpyridin-2-yl)piperazide] | – | 96 | 3450 | 441 | – |
| C=CC(=O)NCCCC[C@H](NC(=O)Cc1ccccc1)C(=O)N1CCN(c2cccc(-c3cn(CCOCCOCCOCCNC(=O)CCCC[C@@H]4SC[C@@H]5NC(=O)N[C@@H]54)nn3)n2)CC1 [Compound 4, N-(2-(2-(2-(2-(4-(6-(4-(N^6-acryloyl-N^2-(2-phenylacetyl)-L-lysyl)piperazin-1-yl)pyridin-2-yl)-1H-1,2,3-triazol-1-yl)ethoxy)ethoxy)ethoxy)ethyl)-5-((3aS,4S,6aR)-2-oxohexahydro-1H-thieno[3,4-d]imidazol-4-yl)pentanamide] | – | 68 | 7260 | 249 | – |
| N,N-dimethylated casein [DMC] | – | – | – | – | Km (hTGase 3): 6.29 µM; Ki (hTGase 3; [6]): 571000 nM; Vmax (hTGase 3; pH 8.0, 30 °C): 5.80 (0.09) mA mL s^−1 mg^−1; Km (hTGase 6): 16.6 µM; Ki (hTGase 6; [6]): 189000 nM; Vmax (hTGase 6; pH 8.0, 30 °C): 27.1 (4.1) mA mL s^−1 mg^−1 |
